Assay results published in patent publication US20260258088A1, “DISC1-BINDING PEPTIDES AND THE USE THEREOF FOR THE TREATMENT AND DIAGNOSIS OF SCHIZOPHRENIA AND OTHER CHRONIC MENTAL DISORDERS” (FORSCHUNGSZENTRUM JUELICH GMBH, priority 2022, published 2026).
Where a chain is given by its changes, count along the chain named. Ends that are not written are not given here.

What was measured:
Conditions in all cases: peptide immobilized, protein 2 μM, 25° C., TBS pH 7.4, KD = Koff/Kon
[1] = molecular target: T1, DISC1 C-region (residues 691-836) mutant S704C (Homo sapiens, UniProt Q9NRI5, S704C); assay: Bio-layer interferometry (BLI) binding of immobilized peptides to S704C C-region
T1 construct: DISC1 C-region (residues 691-836) mutant versions S704C, and/or 713E and/or L807-FS
T1 sequence (Q9NRI5 691-836 S704C): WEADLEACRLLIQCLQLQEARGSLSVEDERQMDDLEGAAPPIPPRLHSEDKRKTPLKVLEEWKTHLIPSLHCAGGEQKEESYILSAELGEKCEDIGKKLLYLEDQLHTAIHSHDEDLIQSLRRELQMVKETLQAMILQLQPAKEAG
Description: (§1) Bio-layer interferometry (BLI) for identification of peptide leads. Binding of the peptides with the C-region constructs (WT, S713E, S704C and L807-FS) were investigated using an Octet (ForteBio) instrument. Prior to measurements, all peptides were solubilized in phosphate buffered saline (PBS) containing 20 mM Na-phosphate, pH 7.4, and 150 mM NaCl. For coupling of the peptide (ligand), the A2RG sensor chip (Sartorius GmbH) were activated with 1-ethyl-3-(3-dimethylaminopropyl) carbodiimide (EDC)/N hydroxysuccinimide (NHS) (200 mM/50 mM); the peptides were diluted to 2 μM in 10 mM sodium acetate, pH 4.0, and immobilized to the sensor chip, and the flow cell was deactivated with 0.1 M ethanolamine-HCl, pH 8.5. Titrations of the above-mentioned C-region and the constructs were performed at 25° C. with TBS, pH 7.4 as the running buffer using protein concentrations of 2 μM without intermittent regeneration. Data analysis of peptide-protein interaction. In order to assess the binding isotherms of the protein to the immobilized peptides, I derived the binding affinity (KD) by computing the on-rate (Kon) and the off-rate (Koff) by deriving the reciprocals of the exponential fittings of association and dissociation (OriginPro 2020). The binding affinity (KD) was derived by dividing the off-rate (Koff) with the on-rate (Kon).

[2] = molecular target: T2, wild-type (WT) human DISC1 C-region (residues 691-836) (Homo sapiens, UniProt Q9NRI5); assay: Bio-layer interferometry (BLI) binding of immobilized peptides to WT C-region
T2 construct: human DISC1 C-region (residues 691-836); His6 (N); made in house; host or cells: E. coli BL21 (DE3) pLysE T1R
T2 sequence (Q9NRI5 691-836): T1 sequence (Q9NRI5 691-836 S704C) with C14S
Description: Protein expression and purification. The wild-type (WT) human DISC1 C-region (residues 691-836) was expressed alternatively as N-terminal His6—fusion construct, which was expressed as previously described using the E. coli BL21 (DE3) pLysE T1R cells. The culture was grown either in Luria-Bertani (LB) broth and protein expression was induced at an OD600 of 0.6 by the addition of 1 mM isopropyl-β-D-thiogalactopyranoside (IPTG) for 16 h at 18° C. Harvested cells were lysed using an ice-chilled microfluidizer M100P (Microfluidics MPT) at 15, 000 PSI in Tris-buffered saline (TBS) buffer containing 10 mM Tris-HCl pH 7.4, 150 mM NaCl and Complete EDTA-free protease inhibitor cocktail (Roche). The soluble fraction was purified on Co^2+-NTA resin (Qiagen) and was eluted using TBS containing 500 mM imidazole. In the next step, the WT C-region protein was further purified on a HiLoad 16/60 Superdex 200 size exclusion chromatography column (GE Healthcare Bio Sciences).
as §1, with “regeneration.” for “regeneration. Data analysis of peptide-protein interaction. In order to assess the binding isotherms of the protein to the immobilized peptides, I derived the binding affinity (KD) by computing the on-rate (Kon) and the off-rate (Koff) by deriving the reciprocals of the exponential fittings of association and dissociation (OriginPro 2020). The binding affinity (KD) was derived by dividing the off-rate (Koff) with the on-rate (Kon).”
Data analysis of peptide-protein interaction. In order to assess the binding isotherms of the protein to the immobilized peptides, I derived the binding affinity (KD) by computing the on-rate (Kon) and the off-rate (Koff) by deriving the reciprocals of the exponential fittings of association and dissociation (OriginPro 2020).
The binding affinity (KD) was derived by dividing the off-rate (Koff) with the on-rate (Kon).

[3] = molecular target: T3, DISC1 C-region (residues 691-836) mutant S713E (Homo sapiens, UniProt Q9NRI5, S713E); assay: Bio-layer interferometry (BLI) binding of immobilized peptides to S713E C-region
T3 construct: DISC1 C-region (residues 691-836) mutant versions S704C, and/or 713E and/or L807-FS
T3 sequence (Q9NRI5 691-836 S713E): T1 sequence (Q9NRI5 691-836 S704C) with C14S, S23E
Description: as §1

[4] = molecular target: DISC1 C-region (residues 691-836) mutant L807-FS; assay: Bio-layer interferometry (BLI) binding of immobilized peptides to L807-FS C-region; set-up: species or system human
Description: as §1

Row | Substance | Kd [1] [nM] | Kd [2] [nM] | Kd [3] [nM] | Kd [4] [nM]
1 | GIKSLISNKMHTQWNY-NH2 [Flm5, GIKSLISNKMHTQWNY-NH2] | 150 | 640 | 80 | 110
2 | QDNPWWHEHKHWKSWP-NH2 [Flo5, QDNPWWHEHKHWKSWP-NH2] | 360 | 250 | 210 | 270
3 | WNHPMNIRSISWHKDS-NH2 [Flm6, WNHPMNIRSISWHKDS-NH2] | 2240 | 2010 | 1070 | 530
4 | AWQHHELKWKQYQGWR-NH2 [Flm2, AWQHHELKWKQYQGWR-NH2] | 150 | 640 | 220 | 110
5 | IWAGHIHDWWRRGQGS-NH2 [Flm1, IWAGHIHDWWRRGQGS-NH2] | 80 | 150 | 80 | 200
6 | PWYNAPHSHGFWGSGR-NH2 [Flm9, PWYNAPHSHGFWGSGR-NH2] | 1490 | 3200 | 1500 | 390
7 | TSGVPWWKFQQQVRRT-NH2 [Flo11, TSGVPWWKFQQQVRRT-NH2] | 1060 | 3680 | 890 | 160
8 | SNWHPRHFFMSPSSPQ-NH2 [Flo6, SNWHPRHFFMSPSSPQ-NH2] | 720 | 2360 | 460 | 170
9 | KYTAIHEWYKAHNGGA-NH2 [Flo8, KYTAIHEWYKAHNGGA-NH2] | 1040 | 2620 | 460 | 170
10 | HKLHHLLKWENQHKVE-NH2 [Flm11, HKLHHLLKWENQHKVE-NH2] | 720 | 1270 | 420 | 540
11 | HISMQTYKWSQWAKHQ-NH2 [Flo3, HISMQTYKWSQWAKHQ-NH2] | 270 | 2620 | 420 | 400
12 | FPHPTLKHREFMRHVS-NH2 [Flo1, FPHPTLKHREFMRHVS-NH2] | 160 | 100 | 70 | 40
